Laboratory results: PMC10582335 (Frontiers in Pharmacology, 2023)
Where two headings read alike, the source gives them in different places.

Legend:
[1] = Pharmacokinetics of almonertinib in rats, alone and after multiple doses of rivaroxaban or apixaban; format: in vivo, Sprague-Dawley (SD) rats; conditions: for AUC(0-inf) / AUC(0-t) / Cmax / Tmax / CL/F / MRT last / MRT inf / Vd/F / half-life: male, Sprague-Dawley, rat, plasma, po, 15 mg/kg, mean ± SD, n = 6; for CL/F: read-out: CLz/F (converted); for MRT last: read-out: MRT0-t; for MRT inf: read-out: MRT0-∞; for Vd/F: read-out: Vz/F; for half-life: read-out: t1/2z (converted)
Description: Chromatographic separation was performed using an XSelect HSS T3 column (2.1 mm × 100 mm, 2.5 µm, Waters, Milford, MA, United States) at 40°C by gradient elution. The mobile phase consisted of water (A) and acetonitrile (0.1% formic acid, B). […] The flow rate was 0.35 mL min^−1, and the injection volume was 6 µL. The positive ion mode with multiple reaction detection was used. […] The mass spectrometer conditions, including delustering potential (DP) and collision energy (CE) of the compounds, are shown in Table 1. […] Protein precipitation was used to process the plasma samples. 5 μL of mixed IS working solution, 50 µL of the plasma samples, and 150 µL of acetonitrile were vortex-mixed for 1.0 min. […] The supernatant was transferred to a 96-well plate for sample analysis. […] (Beijing, China). […] The study was approved and supervised by the Animal Ethics Committee of Hebei General Hospital (Shijiazhuang, China) (No. 2023024). Adaptive feeding (sufficient food and water) was performed for 1 week before the experiment. […] All rats were fasted for 12 h before starting the experiments while still given water. Sixty healthy rats were randomly divided into ten groups (n = 6). […] Blood samples were centrifuged at 3,500 g for 10 min, and then the supernatant was gathered and stored in a −80°C refrigerator. After, rat intestine, kidney and liver tissues were harvested for molecular analysis on the ninth or fifth day after treatment with the corresponding drugs for each group. The tissues were placed immediately at −80°C. DAS 2.1.1 Software (Mathematical Pharmacology Professional Committee of China, Shanghai, China) was applied to calculate pharmacokinetic parameters using non-compartmental analysis. SPSS 25.0 statistical software (SPSS Inc., Chicago, IL, United States) was applied to statistically analyze the main pharmacokinetic parameters, including AUC, Cmax, Tmax, t1/2, CLz/F, Vz/F, and MRT.

Abcg2 mRNA (BCRP) = assay: qRT-PCR of mRNA expression in rat tissues after multiple-dose almonertinib; format: in vivo; conditions: intestine, rats given almonertinib for nine consecutive days, n = 3
Description: (§1) Sixty healthy rats were randomly divided into ten groups (n = 6). […] Blood samples were centrifuged at 3,500 g for 10 min, and then the supernatant was gathered and stored in a −80°C refrigerator. After, rat intestine, kidney and liver tissues were harvested for molecular analysis on the ninth or fifth day after treatment with the corresponding drugs for each group. The tissues were placed immediately at −80°C.
(§2) qRT-PCR analysis was used to determine mRNA levels of Abcb1a, Abcg2 and Cyp3a1 in the liver and intestines, and Abcb1a and Abcg2 in the kidney of rats. Total RNA was isolated from frozen liver, intestine and kidney samples using TRNzol Universal according to the manufacturer’s instructions. A Bio Tek Epoch (Bio Tek Instruments, Inc., Winooski, VT, United States) was employed to quantify the purity and concentration of the total RNA based on the ratio of the absorbance between 260 and 280 nm. RNA samples of 1 µg were transformed to complementary DNA (cDNA) using the FastKing RT Kit. The real-time PCR assays were accomplished using a two-step amplification method based on the recommendations in a SLAN-96S Real-Time PCR system (Shanghai Hongshi Medical Technology Co., Ltd. Shanghai, China). […] was used as an internal control, and the PCR cycling criteria were as follows: 95°C for 15 min, then 40 cycles of 95°C for 10, and 60°C for 32 s.

Cyp3a1 mRNA (CYP3A4) = assay: as above; format: in vivo; conditions: rats given almonertinib for nine consecutive days, n = 3
Description: as §1, §2

[2] = almonertinib 15 mg/kg after multiple doses of rivaroxaban (group 9) compared with group 3, rats
[3] = rats, oral almonertinib 15 mg/kg after apixaban 0.5 mg/kg for five days (group 10)
[4] = rats, oral almonertinib 15 mg/kg after rivaroxaban 2 mg/kg for five days (group 9)
[5] = rats, oral almonertinib 15 mg/kg alone (group 3, control solvent of rivaroxaban)
[6] = rats, oral almonertinib 15 mg/kg alone (group 4, control solvent of apixaban)

all the pharmacokinetic parameters of almonertinib, comparison with almonertinib alone ([1]; almonertinib 15 mg/kg after multiple doses of apixaban 0.5 mg/kg (group 10) compared with group 4, rats): no statistically significant difference | increase of Cmax of almonertinib ([1]; almonertinib 15 mg/kg after multiple doses of rivaroxaban (group 9) compared with almonertinib alone (group 3), rats): 1.26 fold | decrease of CLz/F of almonertinib [1, 2]: 81.1% | increase of AUC0-t of almonertinib [1, 2]: 1.17 fold | increase of AUC0-∞ of almonertinib [1, 2]: 1.17 fold | AUC(0-inf) [1, 3]: 293 ± 48.9 ng·h/mL | AUC(0-t) [1, 3]: 267 ± 51.9 ng·h/mL | Cmax [1, 3]: 42.1 ± 5.99 ng/mL | Tmax [1, 3]: 2.5 ± 1.18 h | CL/F [1, 3]: 877 mL/min/kg | MRT last [1, 3]: 6.49 ± 0.35 h | MRT inf [1, 3]: 9.31 ± 2.59 h | Vd/F [1, 3]: 522 ± 318 L/kg | half-life [1, 3]: 6.79 ± 4.15 h | AUC(0-inf) [1, 4]: 299 ± 150 ng·h/mL | AUC(0-t) [1, 4]: 299 ± 150 ng·h/mL | Cmax [1, 4]: 51.4 ± 24.9 ng/mL | Tmax [1, 4]: 3.17 ± 0.41 h | CL/F [1, 4]: 1040 mL/min/kg | MRT last [1, 4]: 5.15 ± 0.66 h | MRT inf [1, 4]: 5.15 ± 0.66 h | Vd/F [1, 4]: 244 ± 168 L/kg | half-life [1, 4]: 2.7 ± 0.78 h | AUC(0-inf) [1, 5]: 138 ± 31.3 ng·h/mL | AUC(0-t) [1, 5]: 138 ± 31.3 ng·h/mL | Cmax [1, 5]: 22.8 ± 4.76 ng/mL | Tmax [1, 5]: 2.17 ± 1.13 h | CL/F [1, 5]: 1880 mL/min/kg | MRT last [1, 5]: 5.03 ± 0.73 h | MRT inf [1, 5]: 5.03 ± 0.74 h | Vd/F [1, 5]: 331 ± 125 L/kg | half-life [1, 5]: 2.18 ± 1.05 h | AUC(0-inf) [1, 6]: 299 ± 46.8 ng·h/mL | AUC(0-t) [1, 6]: 281 ± 43.3 ng·h/mL | Cmax [1, 6]: 39.8 ± 8.12 ng/mL | Tmax [1, 6]: 1.83 ± 1.03 h | CL/F [1, 6]: 855 mL/min/kg | MRT last [1, 6]: 6.53 ± 0.97 h | MRT inf [1, 6]: 8.35 ± 3.38 h | Vd/F [1, 6]: 383 ± 316 L/kg | half-life [1, 6]: 5.4 ± 4.96 h | inhibition of mRNA expression of Cyp3a1 (Cyp3a1 mRNA (CYP3A4); intestine): 96.9% | inhibition of mRNA expression of Cyp3a1 (Cyp3a1 mRNA (CYP3A4); liver): 45.5%
Compound: C=CC(=O)Nc1cc(Nc2nccc(-c3cn(C4CC4)c4ccccc34)n2)c(OC)cc1N(C)CCN(C)C [almonertinib, Almonertinib]
inhibition of mRNA expression of Abcg2 (Abcg2 mRNA (BCRP)): 28.0%
